Source: patent US20030054047A1 (priority 2001, published 2003)
In brackets after ≈: the same amount, converted by molar mass.

Columns and labels:
Influenza virus A/90-15 [1] = assay: microbe, parasite or virus in culture; type: cell-based, Influenza virus type A (H3N2) strain Jifeng A/90-15
Influenza virus B/97-13 [2] = assay: microbe, parasite or virus in culture; type: cell-based, Influenza virus type B strain Jifeng B/97-13
Influenza virus A/90-15 [3] = assay: Preventive assay: MDCK cells pre-treated 24 hours, then infected, influenza A; type: cell-based, Influenza virus type A (H3N2) strain Jifeng A/90-15; conditions: drug added 24 hours before infection
Protocol: (§1) Preventive assay: Cell culture plate pre-treated with different concentrations of sample solutions for 24 hours, washed out the drugs, then infected with viruses, incubated, washed, observed and calculated the inhibition % as above.

Influenza virus B/97-13 [4] = assay: Preventive assay: MDCK cells pre-treated 24 hours, then infected, influenza B; type: cell-based, Influenza virus type B strain Jifeng B/97-13; conditions: drug added 24 hours before infection
Protocol: as §1

For NC(=O)c1ncn([C@@H]2O[C@H](CO)[C@@H](O)[C@H]2O)n1 [Ribavirin, 1-β-D-ribafuranosyl-1,2,4-triazole-3-carboxamide], the “Inhibition of virus CPE (in words)” value (Influenza virus A/90-15 [1]) was “effective”, the IC50 (Influenza virus A/90-15 [1]; unidentified influenza virus, MDCK, read-out: Influenza virus A/90-15 IC50) was 70 ± 40 µg/mL (≈ 287 µM) and the “Inhibition of virus CPE (in words)” value (Influenza virus B/97-13 [2]) was “effective”. The IC50 (Influenza virus B/97-13 [2]; unidentified influenza virus, MDCK, read-out: Influenza virus B/97-13 IC50) was 60 ± 30 µg/mL (≈ 246 µM), the “Activity on pretreatment for 24 hours (in words)” value (Influenza virus A/90-15 [3]) was “effective” and the “Activity on pretreatment for 24 hours (in words)” value (Influenza virus B/97-13 [4]) was “effective”.
